Test results published in PMC6151437, “Antibacterial Synthetic Peptides Derived from Bovine Lactoferricin Exhibit Cytotoxic Effect against MDA-MB-468 and MDA-MB-231 Breast Cancer Cell Lines” (Molecules : A Journal of Synthetic Chemistry and Natural …, 2017).
Converted amounts (≈) assume the structure as drawn. Read-outs that look alike come from different tables or passages of the source. Bridge positions count the residues as written; N and C are the ends. Square brackets hold non-standard residues; d marks the D form. Ends that are not written are not given here. Peptide text beside a SMILES is read from it. I, II: the chains in the order shown. Ahx = NCCCCCC(=O)O

What was measured:
E. coli ATCC 11775 [1] = assay type: cell-based
Procedure: (§1) The minimal inhibitory concentration (MIC) was determined using a microdilution assay. In brief, bacterial strains were incubated for 18 to 24 h at 37 °C in an Muller Hinton broth (MHB) until an optical density of 0.15 to 0.30 (620 nm) was obtained. 90 µL of MHB was mixed with 90 µL of peptide (440 µg/mL), and using a 96-well microtiter plate peptide, serial dilution (200, 100, 50, 25, 12.5, and 6.2 µg/mL) was performed. 10 µL of inoculum (2 × 10^6 CFU/mL) was added to each well. Final volume in each well was 100 µL. Then they were incubated for 24 h at 37 °C, and the absorbance at 620 nm was measured using an Asys Expert Plus ELISA reader. For determining the minimum bactericidal concentration (MBC), a small sample was taken from each well using an inoculation loop, which was then spread on MHA plates and incubated overnight at 37 °C. […] Each of these tests was performed twice (n = 2).

E. coli ATCC 25922 [2] = assay type: cell-based
Procedure: as §1

E. coli ATCC 11775 [3] = system: E. coli ATCC 11775; design: method as in ref 15, 25, 26 = [15]; PMID 25815317; doi:10.1155/2015/453826; 15. León M.A. Leal A.L. Almanzar G. Rosas J.E. García J.E. Rivera Z.J. Antibacterial activity of synthetic peptides derived from Lactoferricin against Escherichia coli ATCC 25922 and Enterococcus faec || [25]; PMID 28613262; doi:10.3390/molecules22060987; 25. Huertas N.J. Monroy Z.J.R. Medina R.F. Castañeda J.E.G. Antimicrobial Activity of Truncated and Polyvalent Peptides Derived from the FKCRRWQWRMKKGLA Sequence against Escherichia coli ATCC 25922 an || [26]; PMID 28287494; doi:10.3390/molecules22030452; 26. Huertas Méndez N.J. Vargas Casanova Y. Gómez Chimbi A.K. Hernández E. Leal Castro A.L. Melo Diaz J.M. Rivera Monroy Z.J. García Castañeda J.E. Synthetic Peptides Derived from Bovine Lactoferricin; settings: cited from earlier work
E. coli ATCC 25922 [4] = system: E. coli ATCC 25922; design: method as in ref 15, 25, 26 = [15]; PMID 25815317; doi:10.1155/2015/453826; 15. León M.A. Leal A.L. Almanzar G. Rosas J.E. García J.E. Rivera Z.J. Antibacterial activity of synthetic peptides derived from Lactoferricin against Escherichia coli ATCC 25922 and Enterococcus faec || [25]; PMID 28613262; doi:10.3390/molecules22060987; 25. Huertas N.J. Monroy Z.J.R. Medina R.F. Castañeda J.E.G. Antimicrobial Activity of Truncated and Polyvalent Peptides Derived from the FKCRRWQWRMKKGLA Sequence against Escherichia coli ATCC 25922 an || [26]; PMID 28287494; doi:10.3390/molecules22030452; 26. Huertas Méndez N.J. Vargas Casanova Y. Gómez Chimbi A.K. Hernández E. Leal Castro A.L. Melo Diaz J.M. Rivera Monroy Z.J. García Castañeda J.E. Synthetic Peptides Derived from Bovine Lactoferricin; settings: cited from earlier work
[5] = system: S. enteriditis ATCC 13076; design: method as in ref 15, 25, 26 = [15]; PMID 25815317; doi:10.1155/2015/453826; 15. León M.A. Leal A.L. Almanzar G. Rosas J.E. García J.E. Rivera Z.J. Antibacterial activity of synthetic peptides derived from Lactoferricin against Escherichia coli ATCC 25922 and Enterococcus faec || [25]; PMID 28613262; doi:10.3390/molecules22060987; 25. Huertas N.J. Monroy Z.J.R. Medina R.F. Castañeda J.E.G. Antimicrobial Activity of Truncated and Polyvalent Peptides Derived from the FKCRRWQWRMKKGLA Sequence against Escherichia coli ATCC 25922 an || [26]; PMID 28287494; doi:10.3390/molecules22030452; 26. Huertas Méndez N.J. Vargas Casanova Y. Gómez Chimbi A.K. Hernández E. Leal Castro A.L. Melo Diaz J.M. Rivera Monroy Z.J. García Castañeda J.E. Synthetic Peptides Derived from Bovine Lactoferricin; settings: cited from earlier work
S. aureus ATCC 25923 = system: S. aureus ATCC 25923; design: method as in ref 15, 25, 26 = [15]; PMID 25815317; doi:10.1155/2015/453826; 15. León M.A. Leal A.L. Almanzar G. Rosas J.E. García J.E. Rivera Z.J. Antibacterial activity of synthetic peptides derived from Lactoferricin against Escherichia coli ATCC 25922 and Enterococcus faec || [25]; PMID 28613262; doi:10.3390/molecules22060987; 25. Huertas N.J. Monroy Z.J.R. Medina R.F. Castañeda J.E.G. Antimicrobial Activity of Truncated and Polyvalent Peptides Derived from the FKCRRWQWRMKKGLA Sequence against Escherichia coli ATCC 25922 an || [26]; PMID 28287494; doi:10.3390/molecules22030452; 26. Huertas Méndez N.J. Vargas Casanova Y. Gómez Chimbi A.K. Hernández E. Leal Castro A.L. Melo Diaz J.M. Rivera Monroy Z.J. García Castañeda J.E. Synthetic Peptides Derived from Bovine Lactoferricin; settings: cited from earlier work
[6] = assay type: cell-based, human
Procedure: (§2) Cytotoxicity assays were performed as previously described. Briefly, breast cancer cell lines (100 µL; 2.5 × 10^3 cells/well) were seeded in 96-well flat bottom tissue culture treated plates and were incubated at 37 °C in a 10% CO2 humidified atmosphere for 24 h, allowing for cell adhesion. Then the media was removed, then 100 µL of FBS (5%) and 100 µL of peptide were added. The peptide final concentration was ranging from 200 to 6.25 µg/mL and the final FBS concentration was 2.5%. Plates were incubated 2 h at 37 °C in a 10% CO2 humidified atmosphere (physiologic pH). Negative controls included medium and water. All controls were prepared in triplicate. Cell viability was determined using the MTT assay after 2 h. For this, 10 µL of MTT solution (5 mg/mL) was added to each well, and the plates were incubated for 2 h at 37 °C. Formazan crystals were clarified by centrifugation, the supernatant was discarded, and the crystals were dissolved in DMSO (100 µL). Absorbance (570 nm) was registered on a Bio-Rad 680 microplate reader. (n = 3).

E. coli = system: E. coli; design: method as in ref 15, 25, 26 = [15]; PMID 25815317; doi:10.1155/2015/453826; 15. León M.A. Leal A.L. Almanzar G. Rosas J.E. García J.E. Rivera Z.J. Antibacterial activity of synthetic peptides derived from Lactoferricin against Escherichia coli ATCC 25922 and Enterococcus faec || [25]; PMID 28613262; doi:10.3390/molecules22060987; 25. Huertas N.J. Monroy Z.J.R. Medina R.F. Castañeda J.E.G. Antimicrobial Activity of Truncated and Polyvalent Peptides Derived from the […] Sequence against Escherichia coli ATCC 25922 an || [26]; PMID 28287494; doi:10.3390/molecules22030452; 26. Huertas Méndez N.J. Vargas Casanova Y. Gómez Chimbi A.K. Hernández E. Leal Castro A.L. Melo Diaz J.M. Rivera Monroy Z.J. García Castañeda J.E. Synthetic Peptides Derived from Bovine Lactoferricin; settings: first of three values given 'respectively', strain not distinguished; cited from earlier work
[7] = assay type: cell-based, human; remark: listed apart in the source
Procedure: as §2

[8] = system: human gastric cancer cell line AGS; settings: cited from earlier work
[9] = system: breast cancer cell line MDA-MB-231; settings: even at the highest tested concentration (40 µM); cited from earlier work
Procedure: For the second part of the experiments, all members of each designed peptide family were tested against MDA-MB-468 and MDA-MB-231 breast cancer cell lines (Figure 3). […] When breast cancer cells lines were incubated with linear peptides or cyclic peptides (200 µg/mL), their viability was approximately 80%.

[10] = E. coli ATCC 11775, microdilution in MHB, 24 h at 37 °C, absorbance 620 nm, n = 2
[11] = E. coli ATCC 11775, plated on MHA overnight at 37 °C, no bacterial growth, n = 2
[12] = E. coli ATCC 25922, microdilution in MHB, 24 h at 37 °C, absorbance 620 nm, n = 2
[13] = E. coli ATCC 25922, plated on MHA overnight at 37 °C, no bacterial growth, n = 2

Molecule | Antibacterial Effect MBC (E. coli ATCC 11775 [1]; ATCC 11775) [µM] | Antibacterial Effect MIC (E. coli ATCC 11775 [1]; ATCC 11775, 24 h) [µM] | Antibacterial Effect MIC (E. coli ATCC 11775 [1]; [10]) [µg/mL] | Antibacterial Effect MBC (E. coli ATCC 11775 [1]; [11]) [µg/mL] | Antibacterial Effect MBC (E. coli ATCC 25922 [2]; ATCC 25922) [µM] | Antibacterial Effect MIC (E. coli ATCC 25922 [2]; ATCC 25922, 24 h) [µM] | Antibacterial Effect MIC (E. coli ATCC 25922 [2]; [12]) [µg/mL] | Antibacterial Effect MBC (E. coli ATCC 25922 [2]; [13]) [µg/mL] | MIC (E. coli ATCC 11775 [3]) [µM] | MIC (E. coli ATCC 25922 [4]) [µM] | MIC [5] [µM] | MIC (S. aureus ATCC 25923) [µM] | IC50 at 2 h ([6]; human) [µM] | MIC (E. coli) [µM] | IC50 [6] [µM] | IC50 [7] [µM] | IC50 [8] [µM] | cytotoxic activity (in words) [9]
N=C(N)NCCC[C@H](NC(=O)[C@H](Cc1c[nH]c2ccccc12)NC(=O)[C@H](CCC(N)=O)NC(=O)[C@H](Cc1c[nH]c2ccccc12)NC(=O)[C@H](CCCNC(=N)N)NC(=O)[C@@H](N)CCCNC(=N)N)C(=O)NCCCC[C@H](NC(=O)[C@H](CCCNC(=N)N)NC(=O)[C@H](Cc1c[nH]c2ccccc12)NC(=O)[C@H](CCC(N)=O)NC(=O)[C@H](Cc1c[nH]c2ccccc12)NC(=O)[C@H](CCCNC(=N)N)NC(=O)[C@@H](N)CCCNC(=N)N)C(=O)NCCCCCC(=O)N[C@@H](CSSC[C@H](NC(=O)CCCCCNC(=O)[C@H](CCCCNC(=O)[C@H](CCCNC(=N)N)NC(=O)[C@H](Cc1c[nH]c2ccccc12)NC(=O)[C@H](CCC(N)=O)NC(=O)[C@H](Cc1c[nH]c2ccccc12)NC(=O)[C@H](CCCNC(=N)N)NC(=O)[C@@H](N)CCCNC(=N)N)NC(=O)[C@H](CCCNC(=N)N)NC(=O)[C@H](Cc1c[nH]c2ccccc12)NC(=O)[C@H](CCC(N)=O)NC(=O)[C@H](Cc1c[nH]c2ccccc12)NC(=O)[C@H](CCCNC(=N)N)NC(=O)[C@@H](N)CCCNC(=N)N)C(N)=O)C(N)=O [LfcinB (20–25)4] (I: H-RRWQWRK[Ahx]C-NH2 / II: H-RRWQWRK[Ahx]C-NH2 / III: H-RRWQWR / IV: H-RRWQWR; amide I:7-III:C, II:7-IV:C; disulfide I:9-II:9) | 44 | 22 | 100 | 200 | 22 | 22 | 100 | 100 | 5.5 (≈ 25.3 µg/mL) | 4.4 (≈ 20.2 µg/mL) | 44 (≈ 202 µg/mL) | 25 (≈ 115 µg/mL) | – | – | – | – | – | –
N=C(N)NCCC[C@H](NC(=O)[C@H](Cc1c[nH]c2ccccc12)NC(=O)[C@H](CCC(N)=O)NC(=O)[C@H](Cc1c[nH]c2ccccc12)NC(=O)[C@H](CCCNC(=N)N)NC(=O)[C@@H](N)CCCNC(=N)N)C(=O)NCCCC[C@H](NC(=O)[C@H](CCCNC(=N)N)NC(=O)[C@H](Cc1c[nH]c2ccccc12)NC(=O)[C@H](CCC(N)=O)NC(=O)[C@H](Cc1c[nH]c2ccccc12)NC(=O)[C@H](CCCNC(=N)N)NC(=O)[C@@H](N)CCCNC(=N)N)C(=O)NCCCCCC(N)=O [LfcinB (20–25)2] (I: H-RRWQWRK[Ahx]-NH2 / II: H-RRWQWR; amide I:7-II:C) | 22 | 22 | 50 | 50 | 11 | 6 | 12.5 | 25 | – | – | 22.4 (≈ 49.2 µg/mL) | 5.6 (≈ 12.3 µg/mL) | > 100 | 2.8 (≈ 6.15 µg/mL) | – | – | – | –
RRWQWR-NH2 [LfcinB (20–25)] | 203 | 203 | – | – | 203 | 203 | – | – | – | – | – | – | – | – | > 203 | > 203 | > 500 | weak cytotoxic activity
